In patent US9695155B2, “Herbicidal substituted pyrimidinyloxy benzene compounds” (E. I. DU PONT DE NEMOURS AND COMPANY, priority 2013, dated 2017):

Tests used:
wheat = experiment: Test A postemergence; format: in vivo, Triticum aestivum; conditions: Triticum aestivum, post-emergence, 240 h
Outline: (§1)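 Visual 0–100 rating (100 = complete control) taken about 10 d post-treatment relative to untreated checks. Preemergence: directed soil spray on sown loam/sand pots. Postemergence: seedlings 2–10 cm, 1–2 leaf. Non-phytotoxic solvent formulation with surfactant.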

Italian ryegrass [1] = experiment: Test A postemergence; format: in vivo, Lolium multiflorum
Outline: as §1

ragweed [2] = experiment: Test C preemergence; format: in vivo, Ambrosia elatior; conditions: Ambrosia artemisiifolia, pre-emergence, preemergence, read-out: Ragweed plant response rating
Outline: (§2)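 Seeds were sown in loam–sand blend and sprayed preemergence, while plants at 1- to 4-leaf stage (2–18 cm) in peat-based medium received postemergence sprays; test chemicals were formulated in a non-phytotoxic solvent with surfactant. After 13–15 days in a greenhouse, injury was rated visually against controls, 0 (no effect) to 100 (complete control).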

soybean = experiment: Test C preemergence; format: in vivo, Glycine max; conditions: Glycine max, pre-emergence, preemergence, read-out: Soybean plant response rating
Outline: as §2

kochia = experiment: Test A postemergence; format: in vivo, Kochia scoparia
Outline: as §1

blackgrass [3] = experiment: Test C postemergence; format: in vivo, Alopecurus myosuroides; conditions: Alopecurus myosuroides, post-emergence
Outline: as §2

blackgrass [4] = experiment: Test C preemergence; format: in vivo, Alopecurus myosuroides; conditions: Alopecurus myosuroides, pre-emergence
Outline: as §2

oilseed rape [5] = experiment: Test C preemergence; format: in vivo, Brassica napus; conditions: Brassica napus, pre-emergence, preemergence, read-out: Oilseed Rape plant response rating
Outline: as §2

large (Lg) crabgrass = experiment: Test C postemergence; format: in vivo, Digitaria sanguinalis; conditions: Digitaria sanguinalis, post-emergence
Outline: as §2

morningglory = experiment: Test C preemergence; format: in vivo, Ipomoea coccinea; conditions: Ipomoea, pre-emergence, preemergence, read-out: Morningglory plant response rating
Outline: as §2

ragweed [6] = experiment: Test A postemergence; format: in vivo, Ambrosia elatior
Outline: as §1

Italian ryegrass [7] = experiment: Test C preemergence; format: in vivo, Lolium multiflorum; conditions: Lolium multiflorum, pre-emergence, preemergence, read-out: Ryegrass, Italian plant response rating
Outline: as §2

yellow nutsedge = experiment: Test C preemergence; format: in vivo, Cyperus esculentus; conditions: Cyperus, pre-emergence, preemergence, scale 0 (no effect) to 100 (complete control), read-out: Nutsedge, Yellow plant response rating
Outline: as §2

giant foxtail = experiment: Test A postemergence; format: in vivo, Setaria faberii; conditions: Setaria faberi, post-emergence, 240 h
Outline: as §1

barnyardgrass [8] = experiment: Test C preemergence; format: in vivo, Echinochloa crus-galli; conditions: Echinochloa crus-galli, pre-emergence
Outline: as §2

johnsongrass = experiment: Test C preemergence; format: in vivo, Sorghum halepense; conditions: Sorghum halepense, pre-emergence, preemergence, read-out: Johnsongrass plant response rating
Outline: as §2

oilseed rape [9] = experiment: Test C postemergence; format: in vivo, Brassica napus; conditions: Brassica napus, post-emergence
Outline: as §2

barnyardgrass [10] = experiment: Test A postemergence; format: in vivo, Echinochloa crus-galli; conditions: Echinochloa crus-galli, post-emergence, 240 h
Outline: as §1

[11] = 31 g ai/ha, 0 to 100 scale, 0 no effect, 100 complete control
[12] = 125 g ai/ha, 0 to 100 scale where 0 is no effect and 100 is complete control
[13] = 16 g ai/ha, scale 0 to 100 (0 no effect, 100 complete control)
[14] = 62 g ai/ha, scale 0 (no effect) to 100 (complete control)
[15] = 125 g ai/ha, scale 0 (no effect) to 100 (complete control)

Q: Which plant injury at 31 g/ha (wheat; 31 g ai/ha, 0 to 100 scale, 0 no effect, 100 complete control, read-out: Plant response rating, Wheat) does the source give for Fc1cccc(Oc2ncc(Cl)cn2)c1-n1cc(C(F)F)nn1 [Compound 141, 5-chloro-2-[2-[4-(difluoromethyl)-1H-1,2,3-triazol-1-yl]-3-fluorophenoxy]pyrimidine] here?
A: Its plant injury at 31 g/ha is 10%.

Q: What about the plant injury at 125 g/ha (wheat; 125 g ai/ha, 0 to 100 scale where 0 is no effect and 100 is complete control, read-out: Wheat plant response rating) of the same compound?
A: Its plant injury at 125 g/ha is 80%.

Q: What about the “Plant response rating, Ryegrass, Italian” value (Italian ryegrass [1]; [11]) of the same compound?
A: The value was 60.

Q: And the “Ryegrass, Italian plant response rating” value (Italian ryegrass [1]; [12])?
A: Its value is 80.

Q: And the pest or weed control at 16 g/ha (ragweed [2]; [13])?
A: The pest or weed control at 16 g/ha was 85%.

Q: And the pest or weed control at 62 g/ha (ragweed [2]; [14])?
A: The pest or weed control at 62 g/ha was 100%.

Q: And the pest or weed control at 125 g/ha (ragweed [2]; [15])?
A: The pest or weed control at 125 g/ha was 100%.

Q: What about the plant injury at 16 g/ha (soybean; [13]) of the same compound?
A: Its plant injury at 16 g/ha is 65%.

Q: What about the plant injury at 62 g/ha (soybean; [14]) of the same compound?
A: The plant injury at 62 g/ha was 90%.

Q: And the plant injury at 125 g/ha (soybean; [15])?
A: The plant injury at 125 g/ha was 98%.

Q: And the “Plant response rating, Kochia” value (kochia; [11])?
A: The value was 100.

Q: What about the “Kochia plant response rating” value (kochia; [12]) of the same compound?
A: The value was 100.

Q: And the pest or weed control at 16 g/ha (blackgrass [3]; 16 g ai/ha, postemergence, 0 is no effect, 100 is complete control, read-out: Plant response rating (0 to 100), Blackgrass)?
A: The pest or weed control at 16 g/ha was 5%.

Q: And the pest or weed control at 125 g/ha (blackgrass [3]; 125 g ai/ha, postemergence, visual rating, scale 0 to 100 (0 no effect, 100 complete control), read-out: Plant response rating, Blackgrass)?
A: The pest or weed control at 125 g/ha was 60%.

Q: What about the pest or weed control at 31 g/ha (blackgrass [3]; Postemergence, 31 g ai/ha, scale 0 to 100 (0 no effect, 100 complete control), 13 to 15 days, read-out: Plant response rating, Blackgrass) of the same compound?
A: The pest or weed control at 31 g/ha was 35%.

Q: What about the pest or weed control at 62 g/ha (blackgrass [3]; Postemergence, 62 g ai/ha, scale 0 to 100 (0 no effect, 100 complete control), read-out: Plant response rating, Blackgrass) of the same compound?
A: The pest or weed control at 62 g/ha was 35%.

Q: What about the pest or weed control at 16 g/ha (blackgrass [4]; 16 g ai/ha, preemergence, scale 0 to 100 (0 no effect, 100 complete control), read-out: Blackgrass plant response rating) of the same compound?
A: The pest or weed control at 16 g/ha was 80%.

Q: What about the pest or weed control at 62 g/ha (blackgrass [4]; 62 g ai/ha, preemergence, scale 0 (no effect) to 100 (complete control), read-out: Blackgrass plant response rating) of the same compound?
A: Its pest or weed control at 62 g/ha is 95%.

Q: And the pest or weed control at 125 g/ha (blackgrass [4]; 125 g ai/ha, preemergence, scale 0 (no effect) to 100 (complete control), read-out: Blackgrass plant response rating)?
A: The pest or weed control at 125 g/ha was 95%.

Q: And the pest or weed control at 31 g/ha (blackgrass [4]; Preemergence, 31 g ai/ha, scale 0 to 100, 0 no effect, 100 complete control, read-out: Plant response rating, Blackgrass)?
A: Its pest or weed control at 31 g/ha is 95%.

Q: And the plant injury at 16 g/ha (oilseed rape [5]; [13])?
A: Its plant injury at 16 g/ha is 100%.

Q: And the plant injury at 62 g/ha (oilseed rape [5]; [14])?
A: Its plant injury at 62 g/ha is 100%.

Q: And the plant injury at 125 g/ha (oilseed rape [5]; [15])?
A: Its plant injury at 125 g/ha is 100%.

Q: What about the pest or weed control at 16 g/ha (large (Lg) crabgrass; 16 g ai/ha, postemergence, 0 is no effect, 100 is complete control, read-out: Plant response rating (0 to 100), Crabgrass, Large) of the same compound?
A: The pest or weed control at 16 g/ha was 5%.

Q: What about the pest or weed control at 125 g/ha (large (Lg) crabgrass; 125 g ai/ha, postemergence, visual rating, scale 0 to 100 (0 no effect, 100 complete control), read-out: Plant response rating, Crabgrass, Large) of the same compound?
A: Its pest or weed control at 125 g/ha is 45%.

Q: What about the pest or weed control at 62 g/ha (large (Lg) crabgrass; Postemergence, 62 g ai/ha, scale 0 to 100 (0 no effect, 100 complete control), read-out: Plant response rating, Crabgrass, Large) of the same compound?
A: The pest or weed control at 62 g/ha was 10%.

Q: What about the pest or weed control at 16 g/ha (morningglory; [13]) of the same compound?
A: The pest or weed control at 16 g/ha was 75%.

Q: And the pest or weed control at 62 g/ha (morningglory; [14])?
A: The pest or weed control at 62 g/ha was 100%.

Q: What about the pest or weed control at 125 g/ha (morningglory; [15]) of the same compound?
A: Its pest or weed control at 125 g/ha is 100%.

Q: And the “Plant response rating, Ragweed” value (ragweed [6]; [11])?
A: Its value is 80.

Q: What about the “Ragweed plant response rating” value (ragweed [6]; [12]) of the same compound?
A: Its value is 100.

Q: And the pest or weed control at 16 g/ha (Italian ryegrass [7]; [13])?
A: The pest or weed control at 16 g/ha was 40%.

Q: What about the pest or weed control at 62 g/ha (Italian ryegrass [7]; [14]) of the same compound?
A: The pest or weed control at 62 g/ha was 75%.

Q: What about the pest or weed control at 125 g/ha (Italian ryegrass [7]; [15]) of the same compound?
A: The pest or weed control at 125 g/ha was 100%.

Q: What about the pest or weed control at 62 g/ha (yellow nutsedge; 62 g ai/ha) of the same compound?
A: The pest or weed control at 62 g/ha was 70%.

Q: And the pest or weed control at 125 g/ha (yellow nutsedge; 125 g ai/ha)?
A: The pest or weed control at 125 g/ha was 95%.

Q: What about the pest or weed control at 31 g/ha (giant foxtail; 31 g ai/ha, 0 to 100 scale, 0 no effect, 100 complete control, read-out: Plant response rating, Foxtail, Giant) of the same compound?
A: Its pest or weed control at 31 g/ha is 90%.

Q: And the pest or weed control at 125 g/ha (giant foxtail; 125 g ai/ha, 0 to 100 scale where 0 is no effect and 100 is complete control, read-out: Foxtail, Giant plant response rating)?
A: The pest or weed control at 125 g/ha was 100%.

Q: What about the pest or weed control at 16 g/ha (barnyardgrass [8]; 16 g ai/ha, preemergence, scale 0 to 100 (0 no effect, 100 complete control), read-out: Barnyardgrass plant response rating) of the same compound?
A: The pest or weed control at 16 g/ha was 80%.

Q: What about the pest or weed control at 62 g/ha (barnyardgrass [8]; 62 g ai/ha, preemergence, scale 0 (no effect) to 100 (complete control), read-out: Barnyardgrass plant response rating) of the same compound?
A: The pest or weed control at 62 g/ha was 100%.

Q: And the pest or weed control at 125 g/ha (barnyardgrass [8]; 125 g ai/ha, preemergence, scale 0 (no effect) to 100 (complete control), read-out: Barnyardgrass plant response rating)?
A: The pest or weed control at 125 g/ha was 100%.

Q: And the pest or weed control at 31 g/ha (barnyardgrass [8]; Preemergence, 31 g ai/ha, scale 0 to 100, 0 no effect, 100 complete control, read-out: Plant response rating, Barnyardgrass)?
A: Its pest or weed control at 31 g/ha is 100%.

Q: And the pest or weed control at 16 g/ha (johnsongrass; [13])?
A: The pest or weed control at 16 g/ha was 30%.

Q: And the pest or weed control at 62 g/ha (johnsongrass; [14])?
A: Its pest or weed control at 62 g/ha is 100%.

Q: What about the pest or weed control at 125 g/ha (johnsongrass; [15]) of the same compound?
A: The pest or weed control at 125 g/ha was 100%.

Q: What about the plant injury at 16 g/ha (oilseed rape [9]; 16 g ai/ha, postemergence, 0 is no effect, 100 is complete control, read-out: Plant response rating (0 to 100), Oilseed Rape) of the same compound?
A: Its plant injury at 16 g/ha is 50%.

Q: And the plant injury at 125 g/ha (oilseed rape [9]; 125 g ai/ha, postemergence, visual rating, scale 0 to 100 (0 no effect, 100 complete control), read-out: Plant response rating, Oilseed Rape)?
A: The plant injury at 125 g/ha was 98%.

Q: And the plant injury at 62 g/ha (oilseed rape [9]; Postemergence, 62 g ai/ha, scale 0 to 100 (0 no effect, 100 complete control), read-out: Plant response rating, Oilseed Rape)?
A: Its plant injury at 62 g/ha is 95%.

Q: What about the pest or weed control at 31 g/ha (barnyardgrass [10]; 31 g ai/ha, 0 to 100 scale, 0 no effect, 100 complete control, read-out: Plant response rating, Barnyardgrass) of the same compound?
A: The pest or weed control at 31 g/ha was 60%.

Q: And the pest or weed control at 125 g/ha (barnyardgrass [10]; 125 g ai/ha, 0 to 100 scale where 0 is no effect and 100 is complete control, read-out: Barnyardgrass plant response rating)?
A: The pest or weed control at 125 g/ha was 100%.
